System: IFN-γ
Assay type: in vivo, C57BL/6 mice
Conditions: 72 h supernatant of blood cell cultures one week after last booster; ESAT-6 10 µg/dose, three vaccinations

CCCCCCCCCCCCCCCCCC[N+](C)(C)CCCCCCCCCCCCCCCCCC.[Br-] [DDA, dimethyl dioctadecyl ammonium bromide]
ESAT-6 specific recall response, IFN-γ, Expt.I: <50 pg/mL
